{
  "source": "patent US8912146B2",
  "about": "“Derivatives of APF and methods of use” (University of Maryland, Baltimore, priority 2008, dated 2014)",
  "key": {"[1]": {"system": "primary normal human bladder epithelial cells", "assay": "3H-thymidine incorporation (antiproliferative activity) in primary normal bladder epithelial cells", "type": "cell-based", "description": "Cell Culture. Cystoscopy was performed under general anesthesia, and 4-mm^2 pieces of transitional epithelium with submucosal bladder tissue were obtained for the growth of primary bladder epithelial cells, as previously described (Keay et al., 1996; 2004). Primary normal bladder epithelial cells were propagated in DMEM-F12 (Media-Tech, Herndon Va.) with 10% heat-inactivated fetal bovine serum (FBS), 1% antibiotic/antimycotic solution, 1% L-glutamine, 0.25 units/mL insulin (all from Sigma, St. Louis, Mo.), and 5 ng/mL hEGF (R&D Systems, Minneapolis, Minn.) at 37° C. in a 5% CO2 atmosphere and characterized by binding of AE-1/AE-3 pancytokeratin antibodies (Signet, Dedham, Mass.).\n^3H-Thymidine Incorporation. Cell proliferation was measured by ^3H-thymidine incorporation into explanted normal human bladder epithelial cells, plating 1.5×10^4 cells/well onto a 96 well cell culture plate (VWR 29442-054), in 150 ul/well MEM containing 10% heat inactivated FBS, 1% antibiotic/antimycotic solution, and 1% L-glutamine (all from Sigma), resulting in a doubling time of 48-72 hours, as previously described (Keay et al., 1996; 2004). Each purified lyophilized synthetic APF congener was resuspended in acetonitrile/distilled water (1:1), and applied to the cells in serum-free MEM (containing only L-glutamine and antibiotics/antimycotics); cell controls received acetonitrile/distilled water diluted in serum-free MEM alone. Cells were then incubated at 37° C. in a 5% CO2 atmosphere for 48 hours. The cell contents harvested and methanol-fixed onto glass fiber filter paper, and the amount of radioactivity incorporated determined. Significant inhibition of ^3H-thymidine incorporation was defined as a mean decrease in counts per minute of greater than 2 standard deviations from the mean of control cells for each plate. Inhibition of cell proliferation was determined from a semi-log plot of dose-response for each APF derivative; IC50 was determined as the concentration of each derivative that caused a mean 50% inhibition of thymidine incorporation as compared to the mean of untreated cell controls.\nStatistical Analysis. The thymidine incorporation (APF biological activity) assay was performed in triplicate on at least two separate runs, with 1 run simultaneously in triplicate on the same plate. The significance of the difference between mean values for each congener vs. mean values for compound 1 was determined by an analysis of variance."}, "[2]": {"system": "bladder epithelial cells from IC/PBS patients", "assay": "Stimulation of IC/PBS cell proliferation (3H-thymidine incorporation)", "type": "cell-based, human", "description": "(§1) IC/PBS cells were incubated with varying concentrations of two derivatives shown to inhibit APF activity in normal bladder cells—GalGalNAc-TV(D-pipecolic acid) AAVVVA (SEQ ID NO:14) and GalGalNAc-TV (D-proline)AAVVVA (SEQ ID NO:27). Cell proliferation was determined by ^3H-thymidine incorporation; gene expression by quantitative RT-PCR; specific protein expression by Western blot analysis; tight junction formation by confocal immunofluorescence microscopy; and paracellular permeability by ^14C-mannitol and ^3H-inulin flux between confluent cells on Transwell plates. Significance of the difference in mean values between groups was determined by an analysis of variance for each assay.\nas §1, with “cells -GalGalNAc-TV-(D-pipecolic acid)-AAVVVA” for “cells—GalGalNAc-TV(D-pipecolic acid) AAVVVA”, “NO:7)” for “NO:14)”, “GalGalNAc-TV-(D-proline)-AAVVVA” for “GalGalNAc-TV (D-proline)AAVVVA”, “RT-PCR;” for “RT-PCR; specific protein expression by Western blot analysis;”\nIC/PBS cells produce APF and as a result have a profound decrease in cell proliferation. […]\nCystoscopy was performed under general anesthesia, and 4-mm^2 pieces of transitional epithelium with submucosal bladder tissue were obtained from IC/PBS patients and controls for the growth of primary bladder epithelial cells, as previously described (Keay et al., 2000; Keay et al., 2001; Keay et al., 2004; Keay et al., 2003). […]\nCell proliferation was measured by ^3H-thymidine incorporation into explanted normal human bladder epithelial cells, as previously described (Keay et al., 2000; Keay et al., 2001; Keay et al., 2004; Keay et al., 2003; Saitoh et al., 2001). […]"}, "[3]": {"system": "ZO-1, occludin, claudin 1, 4, 8, 12 mRNA in IC/PBS cells", "assay": "qRT-PCR of tight junction protein mRNA in IC/PBS cells", "type": "cell-based, human", "details": "16 or 30 day treatment", "description": "Total RNA was extracted from IC/PBS and normal control epithelial cell explants using the RNEasy Plus Mini Kit (Qiagen) according to the manufacturer's protocol. Quantitative real time RT-PCR for tight junction gene expression was performed using Quantitect Primers (Qiagen), SYBR Green RT-PCR kit reagents (Qiagen), and a Roche 480 Light-Cycler. Samples were tested in triplicate runs, and specific mRNA levels quantified and compared to mRNA levels for β-actin using LightCycler 480 real-time PCR analysis software (version 1.5).\nFor the permeability assay, the percentage of total counts in the basal medium was determined in four experiments (using different IC/PBS cell donors), and expressed as mean±standard deviation. Crossover point analysis was performed for qRT-PCR data, and expression of each gene was quantified relative to β-actin; this value was expressed as mean±standard error of the mean for duplicate runs performed on two separate occasions. ^3H-thymidine incorporation was determined in triplicate on two separate occasions, and the CPM expressed as mean±standard deviation."}},
  "note": "Where two headings read alike, the source gives them in different places.",
  "data": [
    {"compound": "CC(=O)NC1C(O[C@@H]2OC(CO)[C@H](O)C(O)C2O)[C@@H](O)C(CO)O[C@@H]1OC(C)[C@H](N)C(=O)NC(C(=O)N1CCCC1C(=O)NC(C)C(=O)N[C@@H](C)C(=O)NC(C(=O)N[C@H](C(=O)NC(C(=O)N[C@@H](C)C(=O)O)C(C)C)C(C)C)C(C)C)C(C)C", "note": "(stereo in doubt) [Derivative 8, GalGalNAc-TV(D-proline)AAVVVA]", "values": [
      {"measurement": "antiproliferative activity compared with as-APF (1), in words", "setting": "[1]", "value": "completely abolished activity"},
      {"measurement": "antiproliferative activity compared with as-APF (1), in words", "setting": "[1]; listed as D-proline APF", "value": "Neither D-proline APF nor D-pipecolic acid APF had any intrinsic antiproliferative activity"},
      {"measurement": "% of activity", "setting": "[1]; relative to 1 (as-APF) run on the same plate, from IC50, inactive = no significant activity at <25 μM", "value": "inactive"},
      {"measurement": "stimulation of IC/PBS cell proliferation", "setting": "[2]; 1 nM twice weekly, by Day 16 (FIG. 55)", "value": "significantly (p<0.05) stimulated IC/PBS cell proliferation"},
      {"measurement": "stimulation of IC cell proliferation", "setting": "[2]; 0.25 μM of each agent, 9, 16, 23, 30 day treatment (FIG. 41)", "value": "Optimal stimulation of IC cell proliferation"},
      {"measurement": "IC cell proliferation vs untreated controls", "setting": "[2]; 16 and 30 days of treatment (FIG. 48)", "value": "significantly stimulated"},
      {"measurement": "tight junction protein (ZO-1, occludin, claudins) mRNA expression in IC/PBS cells", "setting": "[3]; listed as D-proline", "value": "significantly (p<0.05) stimulate mRNA expression"},
      {"measurement": "tight junction protein (ZO-1, occludin, claudins) mRNA expression in IC/PBS cells", "setting": "[3]; listed as D-proline APF", "value": "stimulation of tight junction protein expression"},
      {"measurement": "tight junction protein (ZO-1, occludin, claudins) mRNA expression in IC/PBS cells", "setting": "[3]; listed as GalGalNAc-TV-(D-proline)-AAVVVA", "value": "significantly increased"}
    ]}
  ]
}
